target: FGFR2 (Homo sapiens, UniProt P21802); test: FGFR wild type enzyme assay (HTRF KinEASE-TK), FGFR2; details: Enz FGFR2 (nM), FGFR2 wild type enzyme assay
Sequence (P21802 399-821 limits assumed): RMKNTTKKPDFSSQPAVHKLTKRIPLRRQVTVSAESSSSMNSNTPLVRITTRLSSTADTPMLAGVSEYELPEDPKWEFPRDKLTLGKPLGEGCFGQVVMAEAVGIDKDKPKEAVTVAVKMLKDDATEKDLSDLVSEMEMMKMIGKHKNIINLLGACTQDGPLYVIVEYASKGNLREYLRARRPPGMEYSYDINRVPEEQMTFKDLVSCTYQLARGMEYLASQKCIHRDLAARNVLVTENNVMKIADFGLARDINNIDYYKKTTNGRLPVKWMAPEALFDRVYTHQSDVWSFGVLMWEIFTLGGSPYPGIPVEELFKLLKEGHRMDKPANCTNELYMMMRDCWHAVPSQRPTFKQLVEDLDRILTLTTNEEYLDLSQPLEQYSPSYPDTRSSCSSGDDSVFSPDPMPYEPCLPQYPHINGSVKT

SMILES | IC50
CC(=O)N1CC[C@H](n2cc(-c3cc(Sc4ccccc4C#N)c4c(C#N)cnn4c3)cn2)C1 [Example 453, (S)-6-(1-(1-acetylpyrrolidin-3-yl)-1H-pyrazol-4-yl)-4-((2-cyanophenyl)thio)pyrazolo [1,5-a]pyridine-3-carbonitrile] | 0.4 nM
CC(=O)N1CCC(n2nc(C)c(-c3cc(Sc4ncccc4F)c4c(C#N)cnn4c3)c2F)CC1 [Example 454, 6-(1-(1-acetylpiperidin-4-yl)-5-fluoro-3-methyl-1H-pyrazol-4-yl)-4-((3-fluoropyridin-2-yl)thio)pyrazolo[1,5-a]pyridine-3-carbonitrile] | 12 nM
Cc1noc(N2CCC[C@H](n3ncc(-c4cc(Sc5ccc(F)cc5C#N)c5c(C#N)cnn5c4)c3C)C2)n1 [Example 455, 4-(2-cyano-4-fluoro-phenyl)sulfanyl-6-[5-methyl-1-[(3S)-1-(3-methyl-1,2,4-oxadiazol-5-yl)-3-piperidyl]pyrazol-4-yl]pyrazolo[1,5-a]pyridine-3-carbonitrile] | 2 nM
Cc1c(-c2cc(Sc3ccc(F)cc3C#N)c3c(C#N)cnn3c2)cnn1[C@H]1CCCN(c2ccccn2)C1 [Example 456, (S)-4-((2-cyano-4-fluorophenyl)thio)-6-(5-methyl-1-(1-(pyridin-2-yl)piperidin-3-yl)-1H-pyrazol-4-yl)pyrazolo[1,5-a]pyridine-3-carbonitrile] | 8 nM
N#Cc1cnn2cc(-c3cnn([C@H]4CCCNC4)n3)cc(Sc3ncccc3F)c12 [Example 457, 4-[(3-fluoro-2-pyridyl)sulfanyl]-6-[2-[(3S)-3-piperidyl]triazol-4-yl]pyrazolo[1,5-a]pyridine-3-carbonitrile] | 13 nM
N#Cc1cc(F)ccc1Sc1cc(-c2cn([C@H]3CCCNC3)nn2)cn2ncc(C#N)c12 [Example 460, (S)-4-((2-cyano-4-fluorophenyl)thio)-6-(1-(piperidin-3-yl)-1H-1,2,3-triazol-4-yl)pyrazolo[1,5-a]pyridine-3-carbonitrile] | 6 nM
N#Cc1ccccc1Sc1cc(-c2cn([C@H]3CCCNC3)nn2)cn2ncc(C#N)c12 [Example 461, (S)-4-((2-cyanophenyl)thio)-6-(1-(piperidin-3-yl)-1H-1,2,3-triazol-4-yl)pyrazolo[1,5-a]pyridine-3-carbonitrile] | 4 nM
N#Cc1cc(F)ccc1Sc1cc(-c2cnn([C@H]3CCCNC3)n2)cn2ncc(C#N)c12 [Example 462, (S)-4-((2-cyano-4-fluorophenyl)thio)-6-(2-(piperidin-3-yl)-2H-1,2,3-triazol-4-yl)pyrazolo[1,5-a]pyridine-3-carbonitrile] | 19 nM
N#Cc1ccccc1Sc1cc(-c2cnn([C@H]3CCCNC3)n2)cn2ncc(C#N)c12 [Example 463, (S)-4-((2-cyanophenyl)thio)-6-(2-(piperidin-3-yl)-2H-1,2,3-triazol-4-yl)pyrazolo[1,5-a]pyridine-3-carbonitrile] | 6 nM
N#Cc1cnn2cc(-c3cn([C@H]4CCNC4)nn3)cc(Sc3ncccc3F)c12 [Example 465, (S)-4-((3-fluoropyridin-2-yl)thio)-6-(1-(pyrrolidin-3-yl)-1H-1,2,3-triazol-4-yl)pyrazolo[1,5-a]pyridine-3-carbonitrile] | 11 nM
Cn1cc(-c2cc(Sc3ncccc3F)c3c(C#N)cnn3c2)cn1 [Example 466, 4-((3-fluoropyridin-2-yl)thio)-6-(1-methyl-1H-pyrazol-4-yl)pyrazolo[1,5-a]pyridine-3-carbonitrile] | 6 nM
CN1CCN(c2ccc(-c3cc(Sc4ncccc4F)c4c(C#N)cnn4c3)cc2)CC1 [Example 467, 4-((3-fluoropyridin-2-yl)thio)-6-(4-(4-methylpiperazin-1-yl)phenyl)pyrazolo[1,5-a]pyridine-3-carbonitrile] | 0.4 nM
Cc1c(-c2cc(Sc3ccc(F)cc3C#N)c3c(C#N)cnn3c2)cnn1[C@H]1CC[C@](O)(CO)CC1 [Example 470, 4-((2-cyano-4-fluorophenyl)thio)-6-(1-((1s,4s)-4-hydroxy-4-(hydroxymethyl)cyclohex-yl)-5-methyl-1H-pyrazol-4-yl)pyrazolo[1,5-a]pyridine-3-carbonitrile] | 1 nM
CC1(C)C[C@H](n2cc(-c3cc(Sc4ncccc4F)c4c(C#N)cnn4c3)cn2)CN1 [Example 471, (S)-6-(1-(5,5-dimethylpyrrolidin-3-yl)-1H-pyrazol-4-yl)-4-((3-fluoropyridin-2-yl)thio)pyrazolo[1,5-a]pyridine-3-carbonitrile] | 1 nM
CC1(C)C[C@H](n2cc(-c3cc(Sc4ccccc4C#N)c4c(C#N)cnn4c3)cn2)CN1 [Example 472, (S)-4-((2-cyanophenyl)thio)-6-(1-(5,5-dimethylpyrrolidin-3-yl)-1H-pyrazol-4-yl)pyrazolo[1,5-a]pyridine-3-carbonitrile] | 0.3 nM
CC1(C)C[C@@H](n2cc(-c3cc(Sc4ccccc4C#N)c4c(C#N)cnn4c3)cn2)CN1 [Example 474, (R)-4-((2-cyanophenyl)thio)-6-(1-(5,5-dimethylpyrrolidin-3-yl)-1H-pyrazol-4-yl)pyrazolo[1,5-a]pyridine-3-carbonitrile] | 0.2 nM
C[C@H](O)C(=O)N1CCC(n2cc(-c3cc(Sc4ccc(F)cc4C#N)c4c(C#N)cnn4c3)cn2)CC1 [Example 475, (S)-4-((2-cyano-4-fluorophenyl)thio)-6-(1-(1-(2-hydroxypropanoyl)piperidin-4-yl)-1H-pyrazol-4-yl)pyrazolo[1,5-a]pyridine-3-carbonitrile] | 1 nM
N#Cc1cnn2cc(-c3cnn([C@H]4CCN(C5CC(O)C5)C4)c3)cc(Sc3ncccc3F)c12 (stereo partly drawn) [Example 476, (S)-4-((3-fluoropyridin-2-yl)thio)-6-(1-(1-(3-hydroxycyclobutyl)pyrroli-din-3-yl)-1H-pyrazol-4-yl)pyrazolo[1,5-a]pyridine-3-carbonitrile] | 1 nM
COC(=O)N1CCC(n2cc(-c3cc(Sc4ncccc4F)c4c(C#N)cnn4c3)cn2)CC1 [Example 478, methyl 4-(4-(3-cyano-4-((3-fluoropyridin-2-yl)thio)pyrazolo[1,5-a]pyridin-6-yl)-1H-pyrazol-1-yl)piperidine-1-carboxylate] | 1 nM
COC(=O)N1CC[C@H](n2cc(-c3cc(Sc4ncccc4F)c4c(C#N)cnn4c3)cn2)C1 [Example 480, methyl (S)-3-(4-(3-cyano-4-((3-fluoropyridin-2-yl)thio)pyrazolo[1,5-a]pyridin-6-yl)-1H-pyrazol-1-yl)pyrrolidine-1-carboxylate] | 1 nM
COC(=O)N1CCC(n2cc(-c3cc(Sc4ccccc4C#N)c4c(C#N)cnn4c3)cn2)CC1 [Example 481, methyl 4-(4-(3-cyano-4-((2-cyanophenyl)thio)pyrazolo [1,5-a]pyridin-6-yl)-1H-pyrazol-1-yl)piperidine-1-carboxylate] | 4 nM
COC(=O)N1CC[C@H](n2cc(-c3cc(Sc4ccccc4C#N)c4c(C#N)cnn4c3)cn2)C1 [Example 483, methyl (S)-3-(4-(3-cyano-4-((2-cyanophenyl)thio)pyrazolo [1,5-a]pyridin-6-yl)-1H-pyrazol-1-yl)pyrrolidine-1-carboxylate] | 0.5 nM

Continued by falling IC50, values first:

IC50 | SMILES
5 nM | N#Cc1ccccc1Sc1cc(-c2cn([C@H]3CCNC3)nn2)cn2ncc(C#N)c12 [Example 464, (S)-4-((2-cyanophenyl)thio)-6-(1-(pyrrolidin-3-yl)-1H-1,2,3-triazol-4-yl)pyrazolo[1,5-a]pyridine-3-carbonitrile]
1 nM | CC(=O)N1CC[C@H](n2cc(-c3cc(Sc4ccccc4C#N)c4c(C#N)cnn4c3)cn2)[C@@H](O)C1 [Example 458, 6-(1-((3S,4S)-1-acetyl-3-hydroxypiperidin-4-yl)-1H-pyrazol-4-yl)-4-((2-cyanophenyl)thio)pyrazolo [1,5-a]pyridine-3-carbonitrile]
1 nM | Cn1cc(-c2cc(Sc3ccccc3C#N)c3c(C#N)cnn3c2)cn1 [Example 468, 4-((2-cyanophenyl)thio)-6-(1-methyl-1H-pyrazol-4-yl)pyrazolo[1,5-a]pyridine-3-carbonitrile]
1 nM | CC1(C)C[C@@H](n2cc(-c3cc(Sc4ncccc4F)c4c(C#N)cnn4c3)cn2)CN1 [Example 473, (R)-6-(1-(5,5-dimethylpyrrolidin-3-yl)-1H-pyrazol-4-yl)-4-((3-fluoropyridin-2-yl)thio)pyrazolo[1,5-a]pyridine-3-carbonitrile]
1 nM | CC(C)(O)CN1CC[C@H](n2cc(-c3cc(Sc4ncccc4F)c4c(C#N)cnn4c3)cn2)C1 [Example 477, (S)-4-((3-fluoropyridin-2-yl)thio)-6-(1-(1-(2-hydroxy-2-methylpropyl)pyrrolidin-3-yl)-1H-pyrazol-4-y)pyrazolo[1,5-a]pyridine-3-carbonitrile]
1 nM | COC(=O)N1CCC[C@H](n2cc(-c3cc(Sc4ncccc4F)c4c(C#N)cnn4c3)cn2)C1 [Example 479, methyl (S)-3-(4-(3-cyano-4-((3-fluoropyridin-2-yl)thio)pyrazolo[1,5-a]pyridin-6-yl)-1H-pyrazol-1-yl)piperidine-1-carboxylate]
1 nM | COC(=O)N1CCC[C@H](n2cc(-c3cc(Sc4ccccc4C#N)c4c(C#N)cnn4c3)cn2)C1 [Example 482, methyl (S)-3-(4-(3-cyano-4-((2-cyanophenyl)thio)pyrazolo [1,5-a]pyridin-6-yl)-1H-pyrazol-1-yl)piperidine-1-carboxylate]
0.6 nM | CC(C)n1cc(-c2cc(Sc3ccccc3C#N)c3c(C#N)cnn3c2)cn1 [Example 452, 4-((2-cyanophenyl)thio)-6-(1-isopropyl-1H-pyrazol-4-yl)pyrazolo[1,5-a]pyridine-3-carbonitrile]
0.4 nM | CC(=O)N1CC[C@@H](n2cc(-c3cc(Sc4ccccc4C#N)c4c(C#N)cnn4c3)cn2)[C@H](O)C1 [Example 459, 6-(1-((3R,4R)-1-acetyl-3-hydroxypiperidin-4-yl)-1H-pyrazol-4-yl)-4-((2-cyanophenyl)thio)pyrazolo [1,5-a]pyridine-3-carbonitrile]
0.2 nM | CN1CCN(c2ccc(-c3cc(Sc4ccccc4C#N)c4c(C#N)cnn4c3)cc2)CC1 [Example 469, 4-((2-cyanophenyl)thio)-6-(4-(4-methylpiperazin-1-yl)phenyl)pyrazolo[1,5-a]pyridin-3-carbonitrile]

— patent US20240270741A1 (Cogent Biosciences, Inc., priority 2023, published 2024)
